Test results: article PMC4189701 (Drug Design, Development and Therapy, 2014)
“And” between values parts separate entries of the source, which are not always exact repeats. Equal values may be shown once. “Also recorded” adds a separate entry of the source. Read-outs that look alike come from different tables or passages of the source.

Columns and labels:
[1] = Single-dose pharmacokinetics in healthy subjects; format: in vivo, human; conditions: for AUC(0-inf) / AUC(0-t) / Cmax / Tmax / half-life: human, plasma, oral; for AUC∞/dose / Cmax/dose / fe / CL/F: mean ± SD; for fe: unchanged in urine
Multiple-dose = format: in vivo, human; conditions: for steady state attained: RM-ANOVA of predose concentrations; for Accumulation index: AUC144–168h/AUC0–24h; for Accumulation index / AUCτ,ss/dose / CL/F / Cmax,ss/dose / fe: mean ± SD; for fe: unchanged in urine
Tolerability [2] = format: in vivo, human; conditions: single dose
Tolerability [3] = format: in vivo, human
CYP3A = CYP3A enzyme activity; format: in vitro ADME; conditions: primary human hepatocytes
CYP3A4 mRNA = CYP3A4 mRNA content in primary human hepatocytes; format: in vitro ADME; conditions: human
[4] = system: CYP3A4 messenger ribonucleic acid (mRNA); experiment: CYP3A4 mRNA content in primary human hepatocytes; format: in vitro ADME; conditions: summary in words
[5] = Pharmacokinetics over single- and multiple-dose studies together; format: in vivo, human
[6] = Tolerability over the whole study; format: in vivo, human
[7] = system: laboratory strains and clinical HIV-1 isolates; conditions: preclinical; ref unpublished data; cited from earlier work
K103N = conditions: major efavirenz-resistant mutation; ref unpublished data; cited from earlier work
[8] = mice and dogs; preclinical studies; cited from earlier work
[9] = system: cytochrome P450 (CYP)-3A4; conditions: human hepatocytes; ref unpublished data; cited from earlier work
[10] = cited from earlier work; for dose proportionality of Cmax or AUC: healthy subjects
[11] = 75–600 mg, single or multiple doses

SMILES: CCn1c(C(=O)c2cc(C)cc(C#N)c2)c(C(C)C)c(=O)[nH]c1=O [KM-023, 3-[3-ethyl-5-isopropyl-2,6-dioxo-1,2,3,6-tetrahydro-pyrimidine-4-carbonyl]-5-methyl benzonitrile]
- AUC(0-inf) ([1]; 75 mg): 11.1 µg·h/mL
- AUC(0-t) ([1]; 75 mg): 8.74 µg·h/mL
- Cmax ([1]; 75 mg): 0.44 ± 0.0683 µg/mL
- Tmax ([1]; 75 mg): 2 h
- half-life ([1]; 75 mg): 29.3 ± 12.5 h
- AUC(0-inf) ([1]; 150 mg): 14.1 µg·h/mL
- AUC(0-t) ([1]; 150 mg): 11.2 µg·h/mL
- Cmax ([1]; 150 mg): 0.621 ± 0.105 µg/mL
- Tmax ([1]; 150 mg): 2 h
- half-life ([1]; 150 mg): 29.5 ± 11.9 h
- AUC(0-inf) ([1]; 300 mg): 18.1 µg·h/mL
- AUC(0-t) ([1]; 300 mg): 14.7 µg·h/mL
- Cmax ([1]; 300 mg): 0.832 ± 0.201 µg/mL
- Tmax ([1]; 300 mg): 2 h
- half-life ([1]; 300 mg): 31.2 ± 21.1 h
- AUC(0-inf) ([1]; 600 mg): 33.7 µg·h/mL
- AUC(0-t) ([1]; 600 mg): 26.8 µg·h/mL
- Cmax ([1]; 600 mg): 1.25 µg/mL
- Tmax ([1]; 600 mg): 3 h
- half-life ([1]; 600 mg): 29.7 ± 15.6 h
- AUC∞/dose ([1]; single dose 75 mg): 148.6 ± 64.1 ng·mL·h/mg
- Cmax/dose ([1]; single dose 75 mg): 5.9 ± 0.9 ng/mL/mg
- fe ([1]; single dose 75 mg): 0.94±0.64%
- AUC∞/dose ([1]; single dose 150 mg): 94.3 ± 38.2 ng·mL·h/mg
- CL/F ([1]; single dose 150 mg): 24.8 ± 5.6 L/h
- Cmax/dose ([1]; single dose 150 mg): 4.1 ± 0.7 ng/mL/mg
- fe ([1]; single dose 150 mg): 0.65±0.34%
- AUC∞/dose ([1]; single dose 300 mg): 60.4 ± 30.5 ng·mL·h/mg
- CL/F ([1]; single dose 300 mg): 40.3 ± 12.4 L/h
- Cmax/dose ([1]; single dose 300 mg): 2.8 ± 0.7 ng/mL/mg
- fe ([1]; single dose 300 mg): 0.52±0.41%
- AUC∞/dose ([1]; single dose 600 mg): 56.2 ± 31.1 ng·mL·h/mg
- CL/F ([1]; single dose 600 mg): 50.0 ± 21.9 L/h
- Cmax/dose ([1]; single dose 600 mg): 2.1 ± 0.7 ng/mL/mg
- fe ([1]; single dose 600 mg): 0.25±0.17%
- steady state attained (Multiple-dose; 75 mg once daily): > 4 days
- accumulation after multiple doses (Multiple-dose; 600 mg dose group): 0.6 fold
- steady state attained (Multiple-dose; 150–600 mg once daily): > 6 days
- Accumulation index (Multiple-dose; multiple doses 75 mg): 1.1±0.2
- AUCτ,ss/dose (Multiple-dose; multiple doses 75 mg): 49.3 ± 13.4 ng·mL·h/mg
- CL/F (Multiple-dose; multiple doses 75 mg): 21.5 ± 5.4 L/h
- Cmax,ss/dose (Multiple-dose; multiple doses 75 mg): 5.1 ± 1.7 ng/mL/mg
- fe (Multiple-dose; multiple doses 75 mg): 0.52±0.40%
- Accumulation index (Multiple-dose; multiple doses 150 mg): 1.1±0.5
- AUCτ,ss/dose (Multiple-dose; multiple doses 150 mg): 55.0 ± 27.1 ng·mL·h/mg
- CL/F (Multiple-dose; multiple doses 150 mg): 22.3 ± 10.2 L/h
- Cmax,ss/dose (Multiple-dose; multiple doses 150 mg): 4.9 ± 1.7 ng/mL/mg
- fe (Multiple-dose; multiple doses 150 mg): 0.75±0.52%
- Accumulation index (Multiple-dose; multiple doses 300 mg): 0.9±0.2
- AUCτ,ss/dose (Multiple-dose; multiple doses 300 mg): 22.7 ± 6.3 ng·mL·h/mg
- CL/F (Multiple-dose; multiple doses 300 mg): 48.0 ± 17.6 L/h
- Cmax,ss/dose (Multiple-dose; multiple doses 300 mg): 2.4 ± 0.6 ng/mL/mg
- fe (Multiple-dose; multiple doses 300 mg): 0.28±0.15%
- Accumulation index (Multiple-dose; multiple doses 600 mg): 0.6 and 0.6±0.1
- AUCτ,ss/dose (Multiple-dose; multiple doses 600 mg): 17.1 ± 9.5 ng·mL·h/mg
- CL/F (Multiple-dose; multiple doses 600 mg): 71.9 ± 28.1 L/h
- Cmax,ss/dose (Multiple-dose; multiple doses 600 mg): 1.8 ± 0.8 ng/mL/mg
- fe (Multiple-dose; multiple doses 600 mg): 0.18±0.12%
- General disorder, all AEs, number of events (Tolerability [2]): 2 (2)
- General disorder, all AEs, number of subjects (Tolerability [2]): 2 (2)
- General disorder, drug-related AEs, number of events (Tolerability [2]): 1 (1)
- General disorder, drug-related AEs, number of subjects (Tolerability [2]): 1 (1)
- Genitourinary disorders, all AEs, number of events (Tolerability [2]): 1 (1)
- Genitourinary disorders, all AEs, number of subjects (Tolerability [2]): 1 (1)
- Genitourinary disorders, drug-related AEs, number of events (Tolerability [2]): 1 (1)
- Genitourinary disorders, drug-related AEs, number of subjects (Tolerability [2]): 1 (1)
- Musculoskeletal disorders, all AEs, number of events (Tolerability [2]): 2
- Musculoskeletal disorders, all AEs, number of subjects (Tolerability [2]): 1
- Musculoskeletal disorders, drug-related AEs, number of events (Tolerability [2]): 2
- Musculoskeletal disorders, drug-related AEs, number of subjects (Tolerability [2]): 1
- Nervous system disorders, all AEs, number of events (Tolerability [2]): 4 (4)
- Nervous system disorders, all AEs, number of subjects (Tolerability [2]): 4 (4)
- Nervous system disorders, drug-related AEs, number of events (Tolerability [2]): 3 (3)
- Nervous system disorders, drug-related AEs, number of subjects (Tolerability [2]): 3 (3)
- Ophthalmologic disorders, all AEs, number of events (Tolerability [2]): 1 (1)
- Ophthalmologic disorders, all AEs, number of subjects (Tolerability [2]): 1 (1)
- Oropharyngeal, respiratory, thoracic, and mediastinal disorders, all AEs, number of events (Tolerability [2]): 7
- Oropharyngeal, respiratory, thoracic, and mediastinal disorders, all AEs, number of subjects (Tolerability [2]): 6
- Oropharyngeal, respiratory, thoracic, and mediastinal disorders, drug-related AEs, number of events (Tolerability [2]): 2
- Oropharyngeal, respiratory, thoracic, and mediastinal disorders, drug-related AEs, number of subjects (Tolerability [2]): 1
- Total, all AEs, number of events (Tolerability [2]): 17
- Gastrointestinal disorders, all AEs, number of events (Tolerability [3]; multiple doses): 3 (3)
- Gastrointestinal disorders, all AEs, number of subjects (Tolerability [3]; multiple doses): 3 (3)
- Gastrointestinal disorders, drug-related AEs, number of events (Tolerability [3]; multiple doses): 3 (3)
- Gastrointestinal disorders, drug-related AEs, number of subjects (Tolerability [3]; multiple doses): 3 (3)
- Nervous system disorders, all AEs, number of events (Tolerability [3]; multiple doses): 4 (4)
- Nervous system disorders, all AEs, number of subjects (Tolerability [3]; multiple doses): 4 (4)
- Nervous system disorders, drug-related AEs, number of events (Tolerability [3]; multiple doses): 4 (4)
- Nervous system disorders, drug-related AEs, number of subjects (Tolerability [3]; multiple doses): 4 (4)
- Oropharyngeal, respiratory, thoracic, and mediastinal disorders, all AEs, number of events (Tolerability [3]; multiple doses): 13
- Oropharyngeal, respiratory, thoracic, and mediastinal disorders, all AEs, number of subjects (Tolerability [3]; multiple doses): 12
- Oropharyngeal, respiratory, thoracic, and mediastinal disorders, drug-related AEs, number of events (Tolerability [3]; multiple doses): 9
- Oropharyngeal, respiratory, thoracic, and mediastinal disorders, drug-related AEs, number of subjects (Tolerability [3]; multiple doses): 8
- Skin and subcutaneous tissue disorders, all AEs, number of events (Tolerability [3]; multiple doses): 4
- Skin and subcutaneous tissue disorders, all AEs, number of subjects (Tolerability [3]; multiple doses): 3
- Skin and subcutaneous tissue disorders, drug-related AEs, number of events (Tolerability [3]; multiple doses): 1 (1)
- Skin and subcutaneous tissue disorders, drug-related AEs, number of subjects (Tolerability [3]; multiple doses): 1 (1)
- Total, drug-related AEs, number of subjects (Tolerability [3]; multiple doses): 16
- epistaxis, occurrences (Tolerability [3]; multiple-dose study): five
- epistaxis, subjects (Tolerability [3]; multiple-dose study): four
- fold induction at 0.3 µM (CYP3A; human, probe testosterone): 1.9
- fold induction at 3 µM (CYP3A; human, probe testosterone): 5
- fold induction at 30 µM (CYP3A; human, probe testosterone): 8.8
- CYP3A enzyme activation (CYP3A; summary in words): exhibited a potential for CYP3A enzyme activation
- fold induction at 0.3 µM (CYP3A4 mRNA): 2.3
- fold induction at 3 µM (CYP3A4 mRNA): 6.2
- fold induction at 30 µM (CYP3A4 mRNA): 6.2
- CYP3A4 messenger ribonucleic acid induction [4]: CYP3A4 messenger ribonucleic acid induction
- dose proportionality of Cmax and AUC [5, 11]: Dose proportionality was not observed; also recorded: less than dose-proportional nonlinear pharmacokinetics
- pharmacokinetic characteristics (linearity) [5, 11]: dose- and time-dependent nonlinear pharmacokinetic characteristics; also recorded: dose-and time-dependent nonlinear pharmacokinetics; also recorded: dose- and time-dependent nonlinear pharmacokinetic profiles
- fe ([5]; all dose levels, unchanged drug in urine): less than 1%
- epistaxis, occurrences ([6]; both studies, all deemed drug-related): seven
- changes from baseline in clinical laboratory test results, vital signs, electrocardiography, computerized impedance cardiography, or physical examinations ([6]; single or multiple doses): no clinically meaningful changes from baseline
- serious AEs ([6]; single or multiple doses 75–600 mg): No serious AEs occurred
- tolerability ([6]; single or multiple doses 75–600 mg, healthy subjects): generally well tolerated without serious adverse events; also recorded: well tolerated
- antiviral activity [7]: low-nanomolar range
- activity against K103N (K103N): showed activity against K103N
- findings in in vivo safety pharmacology studies [8]: no significant findings
- CYP3A4 induction [9]: moderately induced

SMILES: Cc1ccnc2c1NC(=O)c1cccnc1N2C1CC1 [nevirapine]
- autoinduction phenomenon [10]: autoinduction phenomenon has also been observed
- dose proportionality of Cmax or AUC ([10]; single oral administration 2.5–400 mg): increased less than dose-proportionally

SMILES: O=C1Nc2ccc(Cl)cc2[C@@](C#CC2CC2)(C(F)(F)F)O1 [efavirenz]
- autoinduction phenomenon [10]: autoinduction phenomenon has also been observed
- dose proportionality of Cmax or AUC ([10]; single oral administration 100–1,600 mg): increased less than dose-proportionally

SMILES: CCC1(c2ccccc2)C(=O)NC(=O)NC1=O [Phenobarbital, reference compound]
- fold induction at 1 mM (CYP3A; human, probe testosterone): 9.9
- fold induction at 1 mM (CYP3A4 mRNA): 8.9
